Measurements taken from patent US10233151B2, “Use of a novel 3-aryl-4-catechol-pyrrole-N-propanol compound and the derivatives thereof to treat cancer and diseases related to excessive angiogenesis” (Centre National de la Recherche Scientifique (CNRS), priority 2014, dated 2019).

What was measured:
[1] = EPR competition with BMPO, superoxide anion from KO2 in DMSO (organic phase); conditions: KO2 5 mM in DMSO, BMPO 25 mM, room temperature; read-out: IC50, inhibition of the formation of the BMPO superoxide adduct
Method: The reactivity of compound (1) with superoxide anion in the organic phase was studied by EPR at room temperature using a competition method with the superoxide trapping reagent BMPO (5-tent-butoxycarbonyl-5-methyl-1-pyrroline N-oxide) (FIG. 1A). The superoxide anion source is potassium salt (KO2) used at 5 mM in DMSO after ultrasound-assisted dissolution. The concentrations used for compound (1) are between 0.31 and 40 μM. The trapping reagent BMPO is used at a final concentration of 25 mM. These experiments were carried out with a MiniScope MS 100 EPR spectrometer (Magnettech GmbH, Germany), operating at a frequency of 9.5 GHz (X-band) with the following parameters: magnetic field: 336.0±9.9 mT; sweep time: 20 s; sampling: 4096 points; modulation amplitude: 0.10 mT; modulation frequency: 100 kHz; gain: 900; microwave power: 100 mW.

U87 cells = experiment: VEGF secretion by ELISA, U87 culture supernatant; type: cell-based, human; conditions: U87, normoxic and hypoxic (2% O2) conditions, concentrations of 5 to 50, 24 hours
Method: At the tenth day of embryonic development, glioblastoma cells (U87, 5×10^6 in 20 μL) were deposited on the chorioallantoic membrane. Two days after the graft, compound (1) at a concentration of 50 μM in a volume of 20 μL was deposited on the surface of the tumor formed. This treatment was repeated every 24 hours for 5 days. The control group was treated with solvent. The test was carried out on 20 eggs bearing glioblastoma tumors for each group. Images of the tumors were taken at day 3 (24 hours after treatment), at day 5 (3 days after treatment) and at day 7 (5 days after treatment) of tumor development. […] In order to determine the antiangiogenic mechanism of compound (1), VEGF was assayed by the ELISA method (Invitrogen, Novex technology), from the culture supernatant of U87 and HCT-116 cells, under normoxic and hypoxic conditions.

[2] = tested on: chick embryo chorioallantoic membrane; experiment: In ovo physiological angiogenesis on chick embryo chorioallantoic membrane; type: in vivo; conditions: 20 μL of 50 μM solution on CAM, seventh day of embryonic development
Method: The effect of compound (1) on physiological angiogenesis was evaluated using the chick embryo chorioallantoic membrane (CAM) model which constitutes a richly vascularized tissue.
At the seventh day of embryonic development, 20 μL of the 50 μM solution of compound (1) was deposited on the chorioallantoic membrane whereas the control membranes were treated with solvent.

[3] = tested on: human endothelial cells (HUVEC); experiment: De novo formation of vascular tubes on Matrigel; type: cell-based; conditions: HUVEC in Matrigel, 24 hours
Method: In order to monitor the effect of compound (1) on “de novo” formation of vascular tubes, human endothelial cells (HUVEC) were cultured in a matrix (Matrigel), in the presence or absence of compound (1). After 24 hours, the effect of compound (1) is analyzed by optical microscopy and is illustrated by photographs. […] Compound (1) thus acts directly on growing endothelial cells by blocking the formation of capillaries, in contrast to the absence of effect on a capillary network already formed, in the “quiescent” state.

HCT-116 cells [4] = experiment: Cell growth test (CellTiter-Blue), HCT-116; type: cell-based; conditions: Homo sapiens, HCT-116, 72 h, HCT-116, normoxia, 72 hours; read-out: IC50 (50% decrease in cell growth)
Method: (§1) The biological activity of compound (1), as well as that of its structural analogues, was studied in vitro on 7 different cancer cell lines: • HCT-116 (colorectal cancer) • U87 (glioblastoma) • K562 (myeloid leukemia) and K562 R • MDA-MB 231 (mammary adenocarcinoma) • MCF-7 (mammary adenocarcinoma) • A549 (pulmonary alveolar adenocarcinoma)
The cells selected for this study were incubated at 37° C. in the presence of compound (1) added in the culture medium at various concentrations and at various times. The set of experiments carried out made it possible to determine the degree of cytotoxicity of the compound tested (IC50), its capacity to induce cell death by apoptosis, in close dependence on extracellular superoxide anion for its activation. […]

MDA-MB 231 cells = experiment: Cell growth test (CellTiter-Blue), MDA-MB 231; type: cell-based; conditions: Homo sapiens; MDA-MB 231, normoxia, 72 hours; read-out: IC50 (50% decrease in cell growth)
Method: as §1
(§2) The cells selected for this study were incubated at 37° C. in the presence of compound (1) added in the culture medium at various concentrations and at various times. The set of experiments carried out made it possible to determine the degree of cytotoxicity of the compound tested (IC50), its capacity to induce cell death by apoptosis, in close dependence on extracellular superoxide anion for its activation.
(§3) The effect of compound (1) on the growth of HCT-116, U87, K562, K562R, MDA-MB 231, MCF-7 and A549 cells, cultured in normoxia, was evaluated using a cell growth test (CellTiter-Blue™ Cell Viability Assay, Promega).

MCF-7 cells = experiment: Cell growth test (CellTiter-Blue), MCF-7; type: cell-based; conditions: Homo sapiens, MCF7; MCF-7, normoxia, 72 hours; read-out: IC50 (50% decrease in cell growth)
Method: as §1, §2, §3

A549 cells = experiment: Cell growth test (CellTiter-Blue), A549; type: cell-based; conditions: Homo sapiens; A549, normoxia, 72 hours; read-out: IC50 (50% decrease in cell growth)
Method: as §1, §2, §3

[5] = tested on: caspases 3 and 7 in HCT-116 cells; experiment: Caspase 3 and 7 activity (ApoONE test), HCT-116; type: cell-based
Method: (§4) In order to specify whether compound (1) leads to apoptotic cell death, the activity of caspases 3 and 7, marker enzymes of apoptosis, was measured using the ApoONE test (Promega) in HCT-116, U87 and HL60 cells treated in normoxia for 24 hours with compound (1) at concentrations varying from 1 μM to 50 μM.
(§5) In order to determine the role of superoxide anion, produced by the cells, in the activation of compound (1), HCT-116 cells were pretreated for 1 hour with the enzyme superoxide dismutase (SOD1) at 50 U/ml, then treated with compound (1). The cells were analyzed to evaluate, firstly, cell survival in normoxia (72 hours of treatment) and in hypoxia (48 hours of treatment). Secondly, the formation of condensed chromatin in normoxia and the activity of caspases 3 and 7 in normoxia were evaluated.

[6] = tested on: caspases 3 and 7 in HL60 cells; experiment: Caspase 3 and 7 activity (ApoONE test), HL60; type: cell-based; conditions: HL60, normoxia, 24 hours, 1 μM to 50 μM
Method: as §4

HCT-116 cells [7] = experiment: Cell survival after SOD pretreatment; type: cell-based; conditions: HCT-116, SOD1 50 U/ml 1 hour pretreatment
Method: as §5

OCCCn1cc(-c2ccccc2)c(-c2ccc(O)c(O)c2)c1 [compound (1)]
IC50 [1]: 2.5 µM | VEGF secretion (U87 cells): does not modify VEGF secretion | effect on physiological angiogenesis [2]: absence of the effect | de novo formation of vascular tubes (capillaries) [3]: prevents the formation of capillaries | IC50 (HCT-116 cells [4]): 7.5 µM | IC50 (MDA-MB 231 cells): 20 µM | IC50 (MCF-7 cells): 15 µM | IC50 (A549 cells): 15 µM | activation of caspases 3-7 after SOD pretreatment ([5]; HCT-116, SOD1 50 U/ml pretreatment, normoxia): completely suppressed | activity of caspases 3 and 7 ([5]; HCT-116, normoxia, 24 hours, 1 μM to 50 μM): significant activation of both caspases | activity of caspases 3 and 7 [6]: strongest activation | cytotoxic effect after SOD pretreatment (HCT-116 cells [7]; 10 μM, normoxia, 72 hours): completely blocks the cytotoxic effect | cytotoxic effect after SOD pretreatment (HCT-116 cells [7]; 25 μM, hypoxia, 48 hours): completely blocks the cytotoxic effect
